Assay results: paper PMC9856093, “CIGB-300 Anticancer Peptide Differentially Interacts with CK2 Subunits and Regulates Specific Signaling Mediators in a Highly Sensitive Large Cell Lung Carcinoma Cell Model” (Biomedicines, 2022)
Positions of bridges follow the written chain, without caps; N, C: chain ends. Non-standard residues stand in square brackets, D forms with d. Residues, ends and D or L forms follow the SMILES beside them. βAla = NCCC(=O)O

What was measured:
A549 = A549 NSCLC cell line; cited from earlier work
Source text: In this work, we evaluated for the first time the molecular events supporting CK2 inhibition by CIGB-300 in an LCLC in vitro model such as NCI-H460 cells.

[1] = tested on: mRNA levels of CK2 subunits; experiment: Quantitative real-time PCR of CK2 subunit transcripts; format: cell-based, human; conditions: normalised to GAPDH and HMBS
Description: Three replicates per condition were used. […] Louis, MO, USA) for RNA isolation (AllPrep DNA/RNA/miRNA Universal Kit, Qiagen, Valencia, CA, USA), according to the manufacturer protocol. All RNA samples were checked by Nanodrop spectrophotometer to measure concentration (ng/μL) and OD relation (260/280 nm). […] Complementary (c)DNAs were obtained from 500 ng of total RNAs, using the Transcriptor First Strand cDNA Synthesis Kit package (Roche, Mannheim, Germany), following manufacturer instructions. […] We amplified two genes for normalization of GAPDH (glyceraldehyde-3-phosphate dehydrogenase) and HMBS (hydroxymethyl-bilane synthase), and the transcripts encoding for CK2 subunits. All the oligonucleotides were synthetized in the Synthesis Department at CIGB (Table S1). Runs were carried out in the LightCycler® 480II equipment (Roche, Mannheim, Germany) in a 96-well format and SYBR Green Probe II mode with a standard program with 45 cycles. Fold changes for transcripts in each treatment were calculated with respect to time-matched control groups after normalization with GAPDH and HMBS genes (v2.0.13, Qiagen GbmH, Munich, Germany), using Ct values and reaction efficiencies per amplicon calculated in […]11.3). Statistical differences are reported in this program, with a p-value-associated with a significance for p < 0.05.

NCI-H460 cells [2] = experiment: Annexin V-FITC/PI staining, apoptosis by flow cytometry; format: cell-based, human
Description: Apoptosis of NCI-H460 cells was measured using FITC Annexin V Apoptosis Detection Kit (BD Biosciences, San Jose, CA, USA). […] NCI-H460 cells were incubated also with 5 µM CX-4945 for 6 h, 24 h and 48 h. Subsequently, cells were washed twice with cold PBS and resuspended in binding buffer (1X) at a final concentration of 1 × 10^6 cells/mL. Finally, 5 µL of FITC Annexin V and PI were added, and cell suspensions were incubated for 15 min at room temperature in the dark. Flow cytometric analysis of stained cells was performed as previously described. All experiments were performed at least two times.

NCI-H460 cells [3] = experiment: Cell cycle analysis, PI staining, flow cytometry; format: cell-based, human
Description: For cell cycle analysis, NCI-H460 cells were incubated with 30 µM CIGB-300 or with 5 µM CX-4945, respectively, during 6 h, 24 h and 48 h. Following treatment with the peptide, cells were collected by centrifugation, washed with PBS, and fixed at 4 °C for 2 h with ice-cold 70% ethanol. After fixation, cells were treated with DNase-free RNase A (Sigma, St. Louis, MO, USA) and subsequently stained at 37 °C for 20 min with […] PI solution (Sigma, St. Louis, MO, USA). Stained cells were analyzed in the above-mentioned Partec CyFlow Space flow cytometry, and FlowJo Software (v7.6.1) was used for data processing and visualization. All experiments were performed at least four times.

c-Myc = experiment: Western blot, cancer molecular markers; format: cell-based, human
Description: (§1) NCI-H460 cells were plated on six-well cell culture plates at 1 × 10^6 cells per well and incubated overnight at 37 °C and 5% CO2. […] After incubation, the culture medium was withdrawn, and cells were washed with PBS and lysed in RIPA buffer containing protease/phosphatase inhibitor (Thermo Fisher Scientific, Waltham, MA, USA). Western blot detection was carried out as described (4.6). Primary antibodies against phospho-PTEN (S380) and total PTEN (Cell Signaling Technology, Danvers, MA, USA), phospho-RPS6 (S235/236) and total RPS6 (Cell Signaling Technology, Danvers, MA, USA), Ezrin (Abcam, Cambridge, UK), c-Myc (CIGB, SP, Cuba), and Fibrillarin (Abcam, Cambridge, UK) were used. Primary antibodies against CK2 subunits were used as previously described. All experiments were performed at least two times.

NCI-H125 = NCI-H125 NSCLC cell line; cited from earlier work
RPS6 = experiment: In vivo pull-down plus Western blot; format: binding, human; conditions: biotin-tagged peptide 30 µM, 0.5 h, NCI-H460 cells; RNAase free assay
Description: (§2) For in vivo pull-down assays, N-terminal biotin tagged CIGB-300 (CIGB-300-B) was added to NCI-H460 cells at a final concentration of 30 µM and incubated for 30 min at 37 °C and 5% CO2. Subsequently, cells were collected, washed, and lysed in PBS solution (Sigma, St. Louis, MO, USA) containing 1 mM DTT (Sigma, St. Louis, MO, USA), Triton X-100 (1%), and complete protease inhibitor (Roche, Basel, Switzerland). Cellular lysates were cleared by centrifugation and added to 30 μL of pre-equilibrated streptavidin–sepharose matrix (GE Healthcare, Chicago, IL, USA). In the case of RNA pre-treatment, another cell extract was incubated with RNAase A (10 mg/mL) (Promega, Madison, WI, USA) for 20 min at 37 °C. Following 1 h at 4 °C, the matrix was collected by centrifugation and extensively washed with cold PBS 1 mM and DTT. Proteins bound to streptavidin–sepharose matrix were digested with trypsin (Promega, Madison, WI, USA) during 16 h or eluted for Western blot analysis. In parallel, untreated cells were subjected to the same experimental procedure to identify those proteins non-specifically bound to streptavidin–sepharose matrix. Proteins were resolved in 12% SDS-PAGE and then transferred to a nitrocellulose membrane. […]

CK2β = experiment: In vivo pull-down plus Western blot; format: binding, human; conditions: biotin-tagged peptide 30 µM, 0.5 h, NCI-H460 cells
Description: as §2

p-RPS6 (S235/236) = experiment: Western blot, CK2 downstream signaling; format: cell-based, human; conditions: NCI-H460, 30 µM, 48 h
Description: as §1

CK2α = biological target: T1, CK2α (Homo sapiens, UniProt P68400); experiment: In vivo pull-down plus Western blot; format: binding; conditions: biotin-tagged peptide 30 µM, 0.5 h, NCI-H460 cells
T1 construct: endogenous in cells; host or cells: NCI-H460
T1 sequence (P68400 whole entry): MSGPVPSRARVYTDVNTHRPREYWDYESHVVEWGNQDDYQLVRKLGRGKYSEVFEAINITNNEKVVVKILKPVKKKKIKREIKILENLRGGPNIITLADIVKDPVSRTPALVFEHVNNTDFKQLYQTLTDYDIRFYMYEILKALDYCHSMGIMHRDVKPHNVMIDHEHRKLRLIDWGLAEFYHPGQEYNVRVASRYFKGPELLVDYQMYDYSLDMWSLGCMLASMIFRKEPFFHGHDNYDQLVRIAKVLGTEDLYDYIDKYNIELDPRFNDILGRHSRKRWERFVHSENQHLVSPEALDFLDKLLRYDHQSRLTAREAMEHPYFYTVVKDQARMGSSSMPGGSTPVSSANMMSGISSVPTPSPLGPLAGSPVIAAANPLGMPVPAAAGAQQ
Description: as §2, with “membrane. For Western blot analysis, a mouse monoclonal antibody against CK2α (Abcam, Cambridge, UK), a rabbit polyclonal antibody against CK2α′ (Abcam, Cambridge, UK), a mouse monoclonal antibody against CK2β (Sigma, St. Louis, MO, USA), and monoclonal rabbit antibodies against PTEN and RPS6 (Cell Signaling, Danvers, MA, USA), respectively, were used as primary antibodies. Detection was performed with peroxidase-conjugated anti-mouse IgG 1:5000 (Sigma, St. Louis, MO, USA) and anti-rabbit IgG 1:5000 (Sigma, St. Louis, MO, USA). […]” for “membrane.”

PTEN = biological target: T2, PTEN (Homo sapiens, UniProt P60484); experiment: In vivo pull-down plus Western blot; format: binding; conditions: biotin-tagged peptide 30 µM, 0.5 h, NCI-H460 cells
T2 construct: endogenous in cells; host or cells: NCI-H460
T2 sequence (P60484 whole entry): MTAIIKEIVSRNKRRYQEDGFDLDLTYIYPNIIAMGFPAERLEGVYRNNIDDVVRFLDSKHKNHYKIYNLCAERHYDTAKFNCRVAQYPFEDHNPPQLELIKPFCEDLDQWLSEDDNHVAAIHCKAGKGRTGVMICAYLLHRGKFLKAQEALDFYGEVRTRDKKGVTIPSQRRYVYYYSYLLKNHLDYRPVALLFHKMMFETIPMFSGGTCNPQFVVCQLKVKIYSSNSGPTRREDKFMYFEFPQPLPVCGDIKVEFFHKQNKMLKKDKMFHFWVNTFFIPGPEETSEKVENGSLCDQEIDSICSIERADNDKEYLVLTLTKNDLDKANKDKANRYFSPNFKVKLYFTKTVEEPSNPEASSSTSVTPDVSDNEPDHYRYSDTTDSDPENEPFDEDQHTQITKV
Description: as §2, with “membrane. For Western blot analysis, a mouse monoclonal antibody against CK2α (Abcam, Cambridge, UK), a rabbit polyclonal antibody against CK2α′ (Abcam, Cambridge, UK), a mouse monoclonal antibody against CK2β (Sigma, St. Louis, MO, USA), and monoclonal rabbit antibodies against PTEN and RPS6 (Cell Signaling, Danvers, MA, USA), respectively, were used as primary antibodies. Detection was performed with peroxidase-conjugated anti-mouse IgG 1:5000 (Sigma, St. Louis, MO, USA) and anti-rabbit IgG 1:5000 (Sigma, St. Louis, MO, USA). […]” for “membrane.”

CK2α′ = biological target: T3, CK2α′ (Homo sapiens, UniProt P19784); experiment: In vivo pull-down plus Western blot; format: binding; conditions: biotin-tagged peptide 30 µM, 0.5 h, NCI-H460 cells
T3 construct: endogenous in cells; host or cells: NCI-H460
T3 sequence (P19784 whole entry): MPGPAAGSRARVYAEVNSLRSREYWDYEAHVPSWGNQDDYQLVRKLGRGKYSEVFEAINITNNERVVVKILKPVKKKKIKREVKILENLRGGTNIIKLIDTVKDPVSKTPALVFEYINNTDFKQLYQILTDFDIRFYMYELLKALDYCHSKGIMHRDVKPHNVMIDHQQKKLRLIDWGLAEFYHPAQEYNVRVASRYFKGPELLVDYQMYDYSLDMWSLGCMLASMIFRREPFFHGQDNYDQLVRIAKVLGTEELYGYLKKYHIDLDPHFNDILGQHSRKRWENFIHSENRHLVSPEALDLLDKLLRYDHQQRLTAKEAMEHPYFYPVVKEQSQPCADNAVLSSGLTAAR
Description: as §2, with “membrane. For Western blot analysis, a mouse monoclonal antibody against CK2α (Abcam, Cambridge, UK), a rabbit polyclonal antibody against CK2α′ (Abcam, Cambridge, UK), a mouse monoclonal antibody against CK2β (Sigma, St. Louis, MO, USA), and monoclonal rabbit antibodies against PTEN and RPS6 (Cell Signaling, Danvers, MA, USA), respectively, were used as primary antibodies. Detection was performed with peroxidase-conjugated anti-mouse IgG 1:5000 (Sigma, St. Louis, MO, USA) and anti-rabbit IgG 1:5000 (Sigma, St. Louis, MO, USA). […]” for “membrane.”

other solid tumor cells = tested on: other solid tumor cells; set-up: method as in PMID 35155265; conditions: read-out: IC50 mean value, antiproliferative effect; cited from earlier work
NCI-H460 cells [4] = experiment: Antiproliferative assay, crystal violet staining; format: cell-based; conditions: Homo sapiens, 48 h incubation, CalcuSyn, mean, n = 4, read-out: IC50, antiproliferative effect
Description: NCI-H460 was originally obtained from the American Type Culture Collection (ATCC, Manassas, VA, USA). The cell line was cultured in Dulbecco’s modified Eagle’s medium (DMEM) (Gibco, Waltham, MA, USA) supplemented with 10% (v/v) fetal bovine serum (FBS, Invitrogen, Carlsbad, CA, USA) and 50 µg/mL gentamicin (Sigma, St. Louis, MO, USA). Cells were maintained at 37 °C and 5% CO2.
Antiproliferative effect was determined using crystal violet staining. Cells were seeded in flat-bottom 96-well plates (6000 cells/mL), and 24 h later, serial dilutions 1:2 ranging from 200 to 12.5 µM of CIGB-300 and serial dilutions 1:2 ranging from 50 to 3.12 µM of CX-4945 were added, respectively. After 48 h of incubation, the medium was removed from each well and crystal violet (1%) (Sigma, St. Louis, MO, USA) was added and incubated for 5 min at room temperature. After dye removal, wells were washed with water. Absorbance was measured in a CLARIOstar microplate reader (BMG LABTECH, Ortenberg, Germany), and half-inhibitory concentration (IC50) values were estimated using CalcuSyn software (v2.1) (Biosoft, Cambridge, UK).

[5] = NCI-H460, 5 µM, 6 h, 24 h and 48 h

IC50 (NCI-H460 cells [4]) [µM]	Structure (SMILES)	IC50 (A549) [µM]	up-regulation of mRNA levels of CK2 subunits ([1]; NCI-H460, 30 µM, earlier times (0.5 h, 3 h, 6 h))	apoptotic peak (NCI-H460 cells [2]; NCI-H460, 30 µM, at 6 h) [%]	perturbation of cells accumulated in the G0/G1 and S phases of the cell cycle (NCI-H460 cells [3]; NCI-H460, 30 µM, S phase at 6 h, G0/G1 at 24 h and 48 h)	effect on c-Myc protein expression (c-Myc; NCI-H460, 30 µM, 0.5 h to 48 h)	IC50 (NCI-H125) [µM]	interaction with RPS6 in pull-down fraction (RPS6)	regulatory subunit (β) of CK2 in pull-down fraction (CK2β)	effect on p-RPS6 (S235/236) (p-RPS6 (S235/236))	interaction with CK2α in pull-down fraction (CK2α)	interaction with PTEN in pull-down fraction (PTEN)	interaction with CK2α′ in pull-down fraction (CK2α′)	IC50 (other solid tumor cells) [µM]	up-regulation of mRNA levels of CK2 subunits ([1]; NCI-H460, 5 µM, longer incubation times (3 h to 24 h))	changes in the double-positive region of the panel (NCI-H460 cells [2]; [5])	cell cycle modulation versus untreated cells (NCI-H460 cells [3]; [5])	effect on c-Myc protein expression (c-Myc; NCI-H460, 5 µM, 6 h to 48 h)
	CSCC[C@@H]1NC(=O)[C@H](Cc2c[nH]c3ccccc23)NC(=O)[C@@H](NC(=O)CCNC(=O)[C@H](CCC(N)=O)NC(=O)[C@@H]2CCCN2C(=O)[C@@H]2CCCN2C(=O)[C@H](CCCNC(=N)N)NC(=O)[C@H](CCCNC(=N)N)NC(=O)[C@H](CCCNC(=N)N)NC(=O)[C@H](CCC(N)=O)NC(=O)[C@H](CCCNC(=N)N)NC(=O)[C@H](CCCNC(=N)N)NC(=O)[C@H](CCCCN)NC(=O)[C@H](CCCCN)NC(=O)[C@H](CCCNC(=N)N)NC(=O)CN)CSSC[C@@H](C(=O)O)NC(=O)[C@H]([C@@H](C)O)NC(=O)CNC(=O)[C@H](CC(C)C)NC(=O)[C@H](Cc2c[nH]cn2)NC(=O)[C@H](CCCNC(=N)N)NC(=O)[C@@H]2CCCN2C(=O)[C@H](CO)NC1=O [CIGB-300] (H-GRKKRRQRRRPPQ[βAla]CWMSPRHLGTC-OH; disulfide 15-25; N-terminus and C-terminus assumed)	171	no more than 1.5 fold	~50	10–15%	decreased c-Myc protein expression throughout all incubation times	60	evident interaction	only minor levels	potent inhibition	mainly interacted	did not interact	mainly interacted	60 to 300				
5 ± 2.1	O=C(O)c1ccc2c(c1)nc(Nc1cccc(Cl)c1)c1ccncc12 [CX-4945, reference compound]														no more than 1.5 fold	did not induce any remarkable changes	modified the amount of the cell population in all phases of the cell cycle	induced c-Myc up-regulation
